The source of these data is ChEMBL document CHEMBL4390657, “Discovery of arylbenzylamines as PDE4 inhibitors with potential neuroprotective effect” (Eur J Med Chem, 2019).

Active and inactive are the calls of the source. The calls are words filed in the database; no cut-off is given here.

For data set [1], the target named is T1, 3',5'-cyclic-AMP phosphodiesterase 4B (Homo sapiens, UniProt Q07343). As to the kind of experiment: Inhibition of human full length N-terminal GST-tagged PDE4B1 expressed in baculovirus infected Sf9 cells using cAMP as substrate incubated for 1 hr by fluorescence polarization assay.
A short description of data set [2]: Inhibition of human N-terminal GST-tagged PDE4D7 (2 to 748 residues) expressed in baculovirus infected Sf9 cells using cAMP as substrate after 1 hr by fluorescence polarization assay. In general terms: Fluorescence polarisation rises when a labelled molecule tumbles more slowly, as on binding a larger partner.
Data set [3] deals with T1, 3',5'-cyclic-AMP phosphodiesterase 4B. As to the kind of experiment: Inhibition of human full length N-terminal GST-tagged PDE4B1 expressed in baculovirus infected Sf9 cells using cAMP as substrate incubated for 1 hr by fluorescence polarization assay relative to control.
Data set [4] deals with SH-SY5Y. As to the kind of experiment: Cytotoxicity against human SH-SY5Y cells assessed as reduction in cell viability at 3.1 to 50 uM incubated for 48 hrs by MTT assay. The class given is cell-based. (Formazan colour is commonly taken as a measure of viable cells.)
For data set [5], the system named is SH-SY5Y. As to the kind of experiment: Neuroprotective activity in human SH-SY5Y cells assessed as reduction in MPP+ induced cytotoxicity at 30 to 60 uM preincubated for 1 hr followed by MPP+ addition and measured after 48 hrs by MTT assay. The class given is functional, cell-based.
The subject of data set [6] is SH-SY5Y. Description: Neuroprotective activity against MPP+-induced cell apoptosis in human SH-SY5Y cells assessed as effect on morphological changes at 30 to 60 uM preincubated for 1 hr followed by MPP+ addition and measured after 48 hrs by PI staining based inverse fluorescent microscopic analysis. The class given is functional.
A short description of data set [7]: Clearance in Sprague-Dawley rat at 2 mg/kg, iv by measured up to 24 hrs by LC-MS /MS analysis. Format: ADME, organism-based. The note with it: in vivo.
Data set [8] in a line: Volume of distribution at steady state in Sprague-Dawley rat at 2 mg/kg, iv by measured up to 24 hrs by LC-MS /MS analysis. Particulars: in vivo, read-out: Vdss. The class given is ADME, organism-based.
The nature of data set [9]: Mean residence time (0 to infinity) in Sprague-Dawley rat at 2 mg/kg, iv by measured up to 24 hrs by LC-MS /MS analysis. The note with it: in vivo. Format: ADME, organism-based.
A short description of data set [10]: AUC (0 to t) in Sprague-Dawley rat at 2 mg/kg, iv by measured up to 24 hrs by LC-MS /MS analysis. Format: ADME, organism-based. Further details: dose 2 mg/kg, time < 24 hr, route intravenous. The note with it: in vivo.
Data set [11] is described as follows: AUC (0 to infinity) in Sprague-Dawley rat at 2 mg/kg, iv by measured up to 24 hrs by LC-MS /MS analysis. Format: ADME, organism-based. Further details: dose 2 mg/kg, time infinity, route intravenous. The note with it: in vivo.
The nature of data set [12]: Cmax in Sprague-Dawley rat at 2 mg/kg, iv by measured up to 24 hrs by LC-MS /MS analysis. The class given is ADME, organism-based. Further details: dose 2 mg/kg, route intravenous. The note with it: in vivo.
Data set [13] in a line: Half life in Sprague-Dawley rat at 2 mg/kg, iv by measured up to 24 hrs by LC-MS /MS analysis. The note with it: in vivo. The class given is ADME, organism-based.
A short description of data set [14]: Tmax in Sprague-Dawley rat at 2 mg/kg, iv by measured up to 24 hrs by LC-MS /MS analysis. The class given is ADME, organism-based. The note with it: in vivo.
Data set [15] can be described thus: Mean residence time (0 to infinity) in Sprague-Dawley rat at 10 mg/kg, po by measured up to 24 hrs by LC-MS /MS analysis. Particulars: in vivo. The class given is ADME, organism-based.
Data set [16] can be described thus: AUC (0 to t) in Sprague-Dawley rat at 10 mg/kg, po by measured up to 24 hrs by LC-MS /MS analysis. Format: ADME, organism-based. The arrangement: time < 24 hr, dose 10 mg/kg, route oral. Particulars: in vivo.
Data set [17] in a line: AUC (0 to infinity) in Sprague-Dawley rat at 10 mg/kg, po by measured up to 24 hrs by LC-MS /MS analysis. The class given is ADME, organism-based. The arrangement: dose 10 mg/kg, time infinity, route oral. Particulars: in vivo.
Data set [18] in a line: Half life in Sprague-Dawley rat at 10 mg/kg, po by measured up to 24 hrs by LC-MS /MS analysis. The class given is ADME, organism-based. The note with it: in vivo.
Data set [19] is described as follows: Tmax in Sprague-Dawley rat at 10 mg/kg, po by measured up to 24 hrs by LC-MS /MS analysis. Format: ADME, organism-based. The note with it: in vivo.
Data set [20] in a line: Oral bioavailability in Sprague-Dawley rat at 10 mg/kg by measured up to 24 hrs by LC-MS /MS analysis. The class given is ADME, organism-based. The note with it: in vivo.
A short description of data set [21]: Cmax in Sprague-Dawley rat at 10 mg/kg, po by measured up to 24 hrs by LC-MS /MS analysis. The arrangement: dose 10 mg/kg, route oral. The note with it: in vivo. The class given is ADME, organism-based.

In general, IC50 refers to the concentration that inhibits the measured activity by half. A word on the clearance: it is the volume of plasma or blood freed of the substance per unit of time. A low value points to a low capacity for elimination. The term MRT inf denotes a mean duration of stay, worked out from the concentration-time curve. For orientation: AUC(0-t) means the area under the concentration-time curve up to a stated or last time point. Low values mean less exposure, high ones more exposure. As usually defined, the AUC(0-inf) is total exposure, with the tail of the curve extrapolated. A low value points to less exposure. In general, Cmax refers to the maximum level reached in the sampled fluid or tissue. The half-life is the time in which the quantity being followed falls by half. By Tmax is commonly meant the time at which the peak concentration occurs. The bioavailability is dose-corrected exposure relative to a reference, in per cent. A low value points to little systemic uptake.

T1 sequence (Q07343 whole entry, the tested form may be a part): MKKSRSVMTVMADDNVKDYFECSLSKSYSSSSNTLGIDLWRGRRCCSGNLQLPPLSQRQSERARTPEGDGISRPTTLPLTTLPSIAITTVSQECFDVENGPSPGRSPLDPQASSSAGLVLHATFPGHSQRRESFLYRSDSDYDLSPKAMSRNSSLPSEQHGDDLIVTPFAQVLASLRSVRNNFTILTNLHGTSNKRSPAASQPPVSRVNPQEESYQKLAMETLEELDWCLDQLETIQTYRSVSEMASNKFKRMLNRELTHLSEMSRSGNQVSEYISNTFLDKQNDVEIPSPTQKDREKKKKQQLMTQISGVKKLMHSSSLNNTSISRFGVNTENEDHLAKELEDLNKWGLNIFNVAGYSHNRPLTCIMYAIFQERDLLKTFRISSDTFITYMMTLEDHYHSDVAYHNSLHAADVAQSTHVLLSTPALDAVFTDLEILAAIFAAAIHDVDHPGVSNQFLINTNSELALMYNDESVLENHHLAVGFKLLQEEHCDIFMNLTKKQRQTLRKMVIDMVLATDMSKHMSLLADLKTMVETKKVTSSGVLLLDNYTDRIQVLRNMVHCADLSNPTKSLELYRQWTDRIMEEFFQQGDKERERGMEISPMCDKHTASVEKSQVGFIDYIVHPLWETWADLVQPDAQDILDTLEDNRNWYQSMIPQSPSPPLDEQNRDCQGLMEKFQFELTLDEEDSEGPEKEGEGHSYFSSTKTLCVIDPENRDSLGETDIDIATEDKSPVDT

`COc1ccc(CNc2cccnc2)cc1-c1cccc(Cl)c1`: the values for the IC50 in data set [1] and in [2] were 2300 nM and 1200 nM, respectively. This compound returned an Imax in data set [3] of 100%.

Turning to `Fc1cccc(-c2cc(CNc3cccnc3)cc3c2OCC3)c1`, the IC50 in [1] was 790 nM; in [2], 1280 nM.

With `COc1ccc(CNc2ccc(Cl)cc2)cc1-c1cccc(Cl)c1`, the concentration for half-maximal inhibition (IC50) in [1] and in data set [2] was greater than 10000 nM in each case.

In the case of `COc1ccc(CN[C@H](C(=O)O)C(C)C)cc1-c1cccc(Cl)c1`, the IC50 in data set [1] and in [2] was greater than 100000 nM throughout.

Take `COC(=O)c1ccc(NCc2ccc(OC)c(-c3cccc(Cl)c3)c2)cc1`: the IC50 in data set [1] and in data set [2] was greater than 10000 nM in each case.

Turning to `COc1ccc(CNc2ccc(F)cc2)cc1-c1cccc(Cl)c1`, the IC50 in data set [1] and in data set [2] was greater than 10000 nM throughout.

`COc1ccc(NCc2ccc(OC)c(-c3cccc(Cl)c3)c2)cc1`: the IC50 in [1] and in data set [2] was greater than 10000 nM in each case.

On to `COc1ccc(CNc2cccc(N(C)C)c2)cc1-c1cccc(Cl)c1`, for which the IC50 in data set [1] and in [2] was greater than 100000 nM throughout.

For the compound `COc1cccc(-c2cc(CNc3cccnc3)ccc2OC)c1`, the results for the IC50 in data set [1] and in data set [2] were 680 nM and 1200 nM, respectively. This compound also registered an Imax in [3] of 90%. Further, in the data set with SH-SY5Y [4], the Activity result is recorded as “Non-Toxic”. In addition, the outcome in the data set on SH-SY5Y [5] and with SH-SY5Y [6] was Active.

In the case of `COc1ccc(CNc2ccccn2)cc1-c1cccc(Cl)c1`, the IC50 in data set [1] and in [2] was greater than 10000 nM each time.

Regarding `Clc1cccc(-c2cc(CNc3cccnc3)cc3c2OCC3)c1`, the IC50 came out at 940 nM in data set [1] and 1310 nM in data set [2].

In [2], `COc1ccc(C2CNC(=O)C2)cc1OC1CCCC1` (centres undefined) [ROLIPRAM] returned an IC50 of 300 nM.

Regarding `COc1ccc(CN2CCOCC2)cc1-c1cccc(Cl)c1`, the IC50 in data set [1] was 3500 nM; in data set [2], 1800 nM.

On to `COc1ccc(CNc2cccnc2)cc1-c1cccc(F)c1`, for which the results for the IC50 in data set [1] and in data set [2] were 340 nM and 380 nM, respectively. This compound showed an Imax in [3] of 93%. The Activity entry in the data set on SH-SY5Y [4] is “Non-Toxic”. Also, the result in the data set with SH-SY5Y [5] and in the data set with SH-SY5Y [6] was Active. In addition, the clearance in [7] is 103 mL/min/kg. For the same compound, in data set [8], the Vd was 4.35 L/kg. Moreover, the values for the MRT inf in data set [9] and in data set [15] were 0.69 h and 7.61 h, respectively. Further, the AUC(0-t) at 24 h was 325 ng·h/mL in data set [10] and 84.4 ng·h/mL in [16]. Moreover, the AUC(0-inf) in data set [11] stood at 327 ng·h/mL; in [17], 134 ng·h/mL. Further, the Cmax was found to be 701 ng/mL in data set [12] and 14.7 ng/mL in [21]. Moreover, the half-life is 1.26 h in data set [13] and 4.32 h in data set [18]. Moreover, the results for the Tmax in data set [14] and in data set [19] were 4.8 min and 3.33 h, respectively. Besides, the bioavailability in [20] came to 8.2%.

With `FC(F)Oc1ccc(CN2CCOCC2)cc1-c1cccc(Cl)c1`, the IC50 worked out at 4100 nM in data set [1] and 2100 nM in data set [2].

With `COc1ccc(CN2CCC(O)CC2)cc1-c1cccc(Cl)c1`, the IC50 in [1] and in data set [2] was greater than 10000 nM in each case.

As for `O=C(Nc1ccccc1Cl)c1ccc(OC(F)F)c(OCC2CC2)c1`, the IC50 was 170 nM in [1] and 40 nM in [2].

On to `COc1ccc(CN[C@@H](Cc2c[nH]c3ccccc23)C(=O)O)cc1-c1cccc(Cl)c1`, for which the IC50 in data set [1] and in data set [2] was greater than 100000 nM in each case.

With `COc1ccc(CN2CCOCC2)cc1-c1cccc(F)c1`, the IC50 in data set [1] is 3700 nM; in [2], 2100 nM.

As to `COc1ccc(CN[C@@H](Cc2ccccc2)C(=O)O)cc1-c1cccc(Cl)c1`, the IC50 in data set [1] and in [2] was greater than 10000 nM in each case.

With `COc1ccc(CN2CCCC(C)C2)cc1-c1cccc(Cl)c1` (centres undefined), the IC50 in data set [1] and in data set [2] was greater than 10000 nM in each case.

As to `COc1ccc(NCc2ccc(OC)c(-c3cccc(Cl)c3)c2)cn1`, the IC50 in [1] and in data set [2] was greater than 10000 nM in each case.

On to `FC(F)Oc1ccc(CNc2cccnc2)cc1-c1cccc(Cl)c1`, for which the IC50 in data set [1] and in data set [2] was greater than 10000 nM in each case.
